Data published in US11013817B2, “Nanoparticles for drug delivery to treat bone disease” (The Cleveland Clinic Foundation, priority 2016, dated 2021).

Assays:
[1] = tested on: DU145 cells; assay: Cytotoxicity of TXT and TXT-NPs in DU145 cells; format: cell-based; details: DU145, 5 day
From the text: (§1) In order to confirm the efficacy of TXT NPs, we determined IC50 of the drug and drug encapsulated in NPs in PC-3 and DU145 cells.

[2] = Solid state solubility of PTX and TXT in polymers (phase separation in cast films); format: physicochemical; set-up: key: +ve: Phase separation; −ve: No phase separation
From the text: For this example, polymer and drug solutions in chloroform at different % of drug to polymer were casted into films on glass slides. Following solvent evaporation of chloroform in a chemical hood overnight, the casted films were observed under a light microscope. Phase separation was clearly evident from crystallization of the drug in the polymer film whereas the films were homogeneous when there was no phase separation.

[3] = tested on: PC-3 cells; assay: Cytotoxicity of TXT and TXT-NPs in PC-3 cells; format: cell-based; details: for IC50 / IC90: Homo sapiens
From the text: as §1

CC(=O)O[C@@]12CO[C@@H]1C[C@H](O)[C@@]1(C)C(=O)[C@H](O)C3=C(C)[C@@H](OC(=O)[C@H](O)[C@@H](NC(=O)OC(C)(C)C)c4ccccc4)C[C@@](O)([C@@H](OC(=O)c4ccccc4)[C@H]21)C3(C)C [Docetaxel, (2R,3S)-N-carboxy-3-phenylisoserine, N-tert-butyl ester, 13-ester with 5b-20-epoxy-12a,4,7b,10b,13a-hexahydroxytax-11-en-9-one 4-acetate 2-benzoate, trihydrate]
6.31 ± 0.17 ng/mL: IC90 ([3]; PC-3, 72 h, PC3, 3 day)
2.4 ± 0.02 ng/mL: IC90 ([1]; Homo sapiens, DU-145, 120 h)
3.8 ± 0.03 ng/mL: IC75 ([3]; PC3, 3 day)
2.5 ± 0.05 ng/mL: IC50 ([3]; PC-3, 72 h, PC3, 3 day)
1.5 ± 0.04 ng/mL: IC50 ([1]; Homo sapiens, DU-145, 120 h)
+: Phase Separation ([2]; drug 1% w/w, polymer inherent viscosity 0.18 dL/g, Lactide/Glycolide 75/25) | Phase Separation ([2]; drug 1% w/w, polymer inherent viscosity 0.26-0.54 dL/g, Lactide/Glycolide 50/50, Ester Terminated) | Phase Separation ([2]; drug 1% w/w, polymer inherent viscosity 0.55-0.75 dL/g, Lactide/Glycolide 50/50, Carbohydrate end Group) | Phase Separation ([2]; drug 1% w/w, polymer inherent viscosity 0.63 dL/g, Lactide/Glycolide 85/15) | Phase Separation ([2]; drug 1% w/w, polymer inherent viscosity 0.64 dL/g, Lactide/Glycolide 65/35) | Phase Separation ([2]; drug 1% w/w, polymer inherent viscosity 0.64 dL/g, Lactide/Glycolide 75/25) | Phase Separation ([2]; drug 1% w/w, polymer inherent viscosity 0.69 dL/g, Lactide/Glycolide 50/50 (second of two such lines, r13)) | Phase Separation ([2]; drug 1% w/w, polymer inherent viscosity 0.76-0.94 dL/g, Lactide/Glycolide 50/50) | Phase Separation ([2]; drug 1% w/w, polymer inherent viscosity 0.87 dL/g, Lactide/Glycolide 50/50) | Phase Separation ([2]; drug 1% w/w, polymer inherent viscosity 1.15 dL/g, Lactide/Glycolide 50/50) | Phase Separation ([2]; drug 1% w/w, polymer inherent viscosity 1.24 dL/g, Lactide/Glycolide 50/50) | Phase Separation ([2]; drug 5% w/w, polymer inherent viscosity 0.18 dL/g, Lactide/Glycolide 75/25) | Phase Separation ([2]; drug 5% w/w, polymer inherent viscosity 0.26-0.54 dL/g, Lactide/Glycolide 50/50, Ester Terminated) | Phase Separation ([2]; drug 5% w/w, polymer inherent viscosity 0.55-0.75 dL/g, Lactide/Glycolide 50/50, Carbohydrate end Group) | Phase Separation ([2]; drug 5% w/w, polymer inherent viscosity 0.63 dL/g, Lactide/Glycolide 85/15) | Phase Separation ([2]; drug 5% w/w, polymer inherent viscosity 0.64 dL/g, Lactide/Glycolide 65/35) | Phase Separation ([2]; drug 5% w/w, polymer inherent viscosity 0.64 dL/g, Lactide/Glycolide 75/25) | Phase Separation ([2]; drug 5% w/w, polymer inherent viscosity 0.67 dL/g, Lactide/Glycolide 65/35) | Phase Separation ([2]; drug 5% w/w, polymer inherent viscosity 0.69 dL/g, Lactide/Glycolide 50/50 (second of two such lines, r13)) | Phase Separation ([2]; drug 5% w/w, polymer inherent viscosity 0.76-0.94 dL/g, Lactide/Glycolide 50/50) | Phase Separation ([2]; drug 5% w/w, polymer inherent viscosity 0.87 dL/g, Lactide/Glycolide 50/50) | Phase Separation ([2]; drug 5% w/w, polymer inherent viscosity 1.15 dL/g, Lactide/Glycolide 50/50) | Phase Separation ([2]; drug 5% w/w, polymer inherent viscosity 1.24 dL/g, Lactide/Glycolide 50/50) | Phase Separation ([2]; drug 10% w/w, polymer inherent viscosity 0.18 dL/g, Lactide/Glycolide 75/25) | Phase Separation ([2]; drug 10% w/w, polymer inherent viscosity 0.26-0.54 dL/g, Lactide/Glycolide 50/50, Ester Terminated) | Phase Separation ([2]; drug 10% w/w, polymer inherent viscosity 0.55-0.75 dL/g, Lactide/Glycolide 50/50, Carbohydrate end Group) | Phase Separation ([2]; drug 10% w/w, polymer inherent viscosity 0.63 dL/g, Lactide/Glycolide 85/15) | Phase Separation ([2]; drug 10% w/w, polymer inherent viscosity 0.64 dL/g, Lactide/Glycolide 65/35) | Phase Separation ([2]; drug 10% w/w, polymer inherent viscosity 0.64 dL/g, Lactide/Glycolide 75/25) | Phase Separation ([2]; drug 10% w/w, polymer inherent viscosity 0.67 dL/g, Lactide/Glycolide 65/35) | Phase Separation ([2]; drug 10% w/w, polymer inherent viscosity 0.69 dL/g, Lactide/Glycolide 50/50 (second of two such lines, r13)) | Phase Separation ([2]; drug 10% w/w, polymer inherent viscosity 0.76-0.94 dL/g, Lactide/Glycolide 50/50) | Phase Separation ([2]; drug 10% w/w, polymer inherent viscosity 0.87 dL/g, Lactide/Glycolide 50/50) | Phase Separation ([2]; drug 10% w/w, polymer inherent viscosity 1.15 dL/g, Lactide/Glycolide 50/50) | Phase Separation ([2]; drug 10% w/w, polymer inherent viscosity 1.24 dL/g, Lactide/Glycolide 50/50) | Phase Separation ([2]; drug 15% w/w, polymer inherent viscosity 0.18 dL/g, Lactide/Glycolide 75/25) | Phase Separation ([2]; drug 15% w/w, polymer inherent viscosity 0.26-0.54 dL/g, Lactide/Glycolide 50/50, Ester Terminated) | Phase Separation ([2]; drug 15% w/w, polymer inherent viscosity 0.55-0.75 dL/g, Lactide/Glycolide 50/50, Carbohydrate end Group) | Phase Separation ([2]; drug 15% w/w, polymer inherent viscosity 0.63 dL/g, Lactide/Glycolide 85/15) | Phase Separation ([2]; drug 15% w/w, polymer inherent viscosity 0.64 dL/g, Lactide/Glycolide 65/35) | Phase Separation ([2]; drug 15% w/w, polymer inherent viscosity 0.64 dL/g, Lactide/Glycolide 75/25) | Phase Separation ([2]; drug 15% w/w, polymer inherent viscosity 0.67 dL/g, Lactide/Glycolide 65/35) | Phase Separation ([2]; drug 15% w/w, polymer inherent viscosity 0.69 dL/g, Lactide/Glycolide 50/50 (second of two such lines, r13)) | Phase Separation ([2]; drug 15% w/w, polymer inherent viscosity 0.76-0.94 dL/g, Lactide/Glycolide 50/50) | Phase Separation ([2]; drug 15% w/w, polymer inherent viscosity 0.87 dL/g, Lactide/Glycolide 50/50) | Phase Separation ([2]; drug 15% w/w, polymer inherent viscosity 1.15 dL/g, Lactide/Glycolide 50/50) | Phase Separation ([2]; drug 15% w/w, polymer inherent viscosity 1.24 dL/g, Lactide/Glycolide 50/50) | Phase Separation ([2]; drug 20% w/w, polymer inherent viscosity 0.18 dL/g, Lactide/Glycolide 75/25) | Phase Separation ([2]; drug 20% w/w, polymer inherent viscosity 0.26-0.54 dL/g, Lactide/Glycolide 50/50, Ester Terminated) | Phase Separation ([2]; drug 20% w/w, polymer inherent viscosity 0.55-0.75 dL/g, Lactide/Glycolide 50/50, Carbohydrate end Group) | Phase Separation ([2]; drug 20% w/w, polymer inherent viscosity 0.63 dL/g, Lactide/Glycolide 85/15) | Phase Separation ([2]; drug 20% w/w, polymer inherent viscosity 0.64 dL/g, Lactide/Glycolide 65/35) | Phase Separation ([2]; drug 20% w/w, polymer inherent viscosity 0.64 dL/g, Lactide/Glycolide 75/25) | Phase Separation ([2]; drug 20% w/w, polymer inherent viscosity 0.67 dL/g, Lactide/Glycolide 65/35) | Phase Separation ([2]; drug 20% w/w, polymer inherent viscosity 0.69 dL/g, Lactide/Glycolide 50/50 (first of two such lines, r12)) | Phase Separation ([2]; drug 20% w/w, polymer inherent viscosity 0.69 dL/g, Lactide/Glycolide 50/50 (second of two such lines, r13)) | Phase Separation ([2]; drug 20% w/w, polymer inherent viscosity 0.76-0.94 dL/g, Lactide/Glycolide 50/50) | Phase Separation ([2]; drug 20% w/w, polymer inherent viscosity 0.87 dL/g, Lactide/Glycolide 50/50) | Phase Separation ([2]; drug 20% w/w, polymer inherent viscosity 0.95-1.20 dL/g, Lactide/Glycolide 50/50) | Phase Separation ([2]; drug 20% w/w, polymer inherent viscosity 1.15 dL/g, Lactide/Glycolide 50/50) | Phase Separation ([2]; drug 20% w/w, polymer inherent viscosity 1.24 dL/g, Lactide/Glycolide 50/50)
2.5 ± 0.01 ng/mL: IC75 ([3]; PC3, 7 day)
4.2 ± 0.08 ng/mL: IC90 ([3]; PC-3, 168 h, PC3, 7 day)
2.5 ± 0.02 ng/mL: IC75 ([3]; PC3, 5 day)
−: Phase Separation ([2]; drug 1% w/w, polymer inherent viscosity 0.16 dL/g, Lactide/Glycolide 50/50) | Phase Separation ([2]; drug 1% w/w, polymer inherent viscosity 0.39 dL/g, Lactide/Glycolide 50/50) | Phase Separation ([2]; drug 1% w/w, polymer inherent viscosity 0.67 dL/g, Lactide/Glycolide 65/35) | Phase Separation ([2]; drug 1% w/w, polymer inherent viscosity 0.69 dL/g, Lactide/Glycolide 50/50 (first of two such lines, r12)) | Phase Separation ([2]; drug 1% w/w, polymer inherent viscosity 0.95-1.20 dL/g, Lactide/Glycolide 50/50) | Phase Separation ([2]; drug 5% w/w, polymer inherent viscosity 0.16 dL/g, Lactide/Glycolide 50/50) | Phase Separation ([2]; drug 5% w/w, polymer inherent viscosity 0.39 dL/g, Lactide/Glycolide 50/50) | Phase Separation ([2]; drug 5% w/w, polymer inherent viscosity 0.69 dL/g, Lactide/Glycolide 50/50 (first of two such lines, r12)) | Phase Separation ([2]; drug 5% w/w, polymer inherent viscosity 0.95-1.20 dL/g, Lactide/Glycolide 50/50) | Phase Separation ([2]; drug 10% w/w, polymer inherent viscosity 0.16 dL/g, Lactide/Glycolide 50/50) | Phase Separation ([2]; drug 10% w/w, polymer inherent viscosity 0.39 dL/g, Lactide/Glycolide 50/50) | Phase Separation ([2]; drug 10% w/w, polymer inherent viscosity 0.69 dL/g, Lactide/Glycolide 50/50 (first of two such lines, r12)) | Phase Separation ([2]; drug 10% w/w, polymer inherent viscosity 0.95-1.20 dL/g, Lactide/Glycolide 50/50) | Phase Separation ([2]; drug 15% w/w, polymer inherent viscosity 0.16 dL/g, Lactide/Glycolide 50/50) | Phase Separation ([2]; drug 15% w/w, polymer inherent viscosity 0.39 dL/g, Lactide/Glycolide 50/50) | Phase Separation ([2]; drug 15% w/w, polymer inherent viscosity 0.69 dL/g, Lactide/Glycolide 50/50 (first of two such lines, r12)) | Phase Separation ([2]; drug 15% w/w, polymer inherent viscosity 0.95-1.20 dL/g, Lactide/Glycolide 50/50) | Phase Separation ([2]; drug 20% w/w, polymer inherent viscosity 0.16 dL/g, Lactide/Glycolide 50/50) | Phase Separation ([2]; drug 20% w/w, polymer inherent viscosity 0.39 dL/g, Lactide/Glycolide 50/50)
1.6 ± 0.01 ng/mL: IC50 ([3]; PC-3, 120 h, PC3, 5 day) | IC50 ([3]; PC-3, 168 h, PC3, 7 day)
1.9 ± 0.03 ng/mL: IC75 [1]
5 ± 0.07 ng/mL: IC90 ([3]; PC-3, 120 h, PC3, 5 day)
